Experimental data from patent US20240109865A1, “INDAZOLE COMPOUNDS AS KINASE INHIBITORS” (TYRA BIOSCIENCES, INC., priority 2020, published 2024).

Key:
Test in all cases: Kinase assay, binding constants (Kd), kinase-tagged T7 phage, qPCR
FGFR1 = FGFR1 (Homo sapiens (Human), UniProt P11362)
Method: (§1) Kinase-tagged T7 phage strains were prepared in an E. coli host derived from the BL21 strain. E. coli were grown to log-phase and infected with T7 phage and incubated with shaking at 32° C. until lysis. The lysates were centrifuged and filtered to remove cell debris. Streptavidin-coated magnetic beads were treated with biotinylated small molecule ligands for 30 minutes at room temperature to generate affinity resins for kinase assays. The liganded beads were blocked with excess biotin and washed with blocking buffer SeaBlock (Pierce), […], 1 mM DTT to remove unbound ligand and to reduce non-specific binding.
(§2) Test compounds were prepared as 111λ stocks in 10000 DMS0. Kds were determined using an 11-point 3-fold compound dilution series with three DMSO control points. […] The compounds were then diluted directly into the assays such that the final concentration of DMSO was 0.9%. All reactions performed in polypropylene 384-well plate. Each was a final volume of 0.02 ml. […] The beads were then re-suspended in elution buffer (1×PBS, 0.05% Tween […] non-biotinylated affinity ligand) and incubated at room temperature with shaking for 30 minutes. The kinase concentration in the eluates was measured by qPCR.
(§3) Binding constants were calculated with a standard dose-response curve using the Hill equation: […]
(§4) The Hill Slope was set to −1. Curves were fitted using a non-linear least square fit with the Levenberg-Marquardt algorithm.

FGFR2 = FGFR2 (Homo sapiens (Human), UniProt P21802)
Method: as §1, §2, §3, §4

FGFR3 = FGFR3 (Homo sapiens (Human), UniProt P22607)
Method: as §1, §2, §3, §4

FGFR3 (V555M) = FGFR3 (V555M) (Homo sapiens (Human), UniProt P22607, V555M); conditions: V555M mutant
Method: as §1, §2, §3, §4

FGFR4 = FGFR4 (Homo sapiens (Human), UniProt P22455)
Method: as §1, §2, §3, §4

Sequence of FGFR2 (P21802 22-821): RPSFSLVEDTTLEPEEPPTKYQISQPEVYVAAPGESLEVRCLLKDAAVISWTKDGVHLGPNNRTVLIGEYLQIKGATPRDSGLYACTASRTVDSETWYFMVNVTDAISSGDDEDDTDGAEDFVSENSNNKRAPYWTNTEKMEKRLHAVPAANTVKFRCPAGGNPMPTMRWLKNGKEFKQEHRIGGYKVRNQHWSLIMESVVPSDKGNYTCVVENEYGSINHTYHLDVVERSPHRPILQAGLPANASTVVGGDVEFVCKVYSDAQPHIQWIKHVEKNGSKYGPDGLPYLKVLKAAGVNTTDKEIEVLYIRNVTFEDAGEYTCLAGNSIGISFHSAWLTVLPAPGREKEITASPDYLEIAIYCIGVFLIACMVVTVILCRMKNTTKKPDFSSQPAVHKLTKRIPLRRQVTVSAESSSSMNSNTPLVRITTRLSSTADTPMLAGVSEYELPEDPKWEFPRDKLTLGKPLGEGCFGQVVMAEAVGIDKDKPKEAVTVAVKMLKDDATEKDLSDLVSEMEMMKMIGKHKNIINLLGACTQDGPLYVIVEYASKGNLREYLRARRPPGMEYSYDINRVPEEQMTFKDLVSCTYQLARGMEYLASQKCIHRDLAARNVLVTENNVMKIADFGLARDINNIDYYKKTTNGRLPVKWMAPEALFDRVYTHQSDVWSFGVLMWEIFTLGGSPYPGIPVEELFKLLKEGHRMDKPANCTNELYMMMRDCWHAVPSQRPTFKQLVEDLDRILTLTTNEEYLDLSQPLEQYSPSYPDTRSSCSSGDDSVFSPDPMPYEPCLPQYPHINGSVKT
Sequence of FGFR4 (P22455 22-802): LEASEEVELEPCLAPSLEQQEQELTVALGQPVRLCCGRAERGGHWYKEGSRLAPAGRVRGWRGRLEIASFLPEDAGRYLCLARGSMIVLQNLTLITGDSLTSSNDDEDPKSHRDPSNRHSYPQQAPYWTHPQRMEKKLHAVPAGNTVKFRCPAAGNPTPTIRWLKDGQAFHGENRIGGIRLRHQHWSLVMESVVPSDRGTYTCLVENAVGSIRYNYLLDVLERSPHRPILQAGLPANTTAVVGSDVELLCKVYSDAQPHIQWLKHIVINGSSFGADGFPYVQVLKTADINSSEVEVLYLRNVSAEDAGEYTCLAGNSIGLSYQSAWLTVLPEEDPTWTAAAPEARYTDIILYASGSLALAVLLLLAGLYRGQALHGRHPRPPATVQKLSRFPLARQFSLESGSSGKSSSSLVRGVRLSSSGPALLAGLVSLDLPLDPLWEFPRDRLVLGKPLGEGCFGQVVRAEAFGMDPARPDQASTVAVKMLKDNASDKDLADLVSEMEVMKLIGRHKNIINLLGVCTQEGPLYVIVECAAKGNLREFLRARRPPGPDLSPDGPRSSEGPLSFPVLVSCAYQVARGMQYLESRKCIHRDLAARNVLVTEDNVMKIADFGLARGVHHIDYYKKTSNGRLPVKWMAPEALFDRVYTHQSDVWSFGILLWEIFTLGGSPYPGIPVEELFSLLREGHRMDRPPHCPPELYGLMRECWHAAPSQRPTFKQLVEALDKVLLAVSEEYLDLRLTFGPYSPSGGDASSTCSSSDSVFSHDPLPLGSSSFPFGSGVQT
Sequence of FGFR3 (V555M) (P22607 23-806 V555M): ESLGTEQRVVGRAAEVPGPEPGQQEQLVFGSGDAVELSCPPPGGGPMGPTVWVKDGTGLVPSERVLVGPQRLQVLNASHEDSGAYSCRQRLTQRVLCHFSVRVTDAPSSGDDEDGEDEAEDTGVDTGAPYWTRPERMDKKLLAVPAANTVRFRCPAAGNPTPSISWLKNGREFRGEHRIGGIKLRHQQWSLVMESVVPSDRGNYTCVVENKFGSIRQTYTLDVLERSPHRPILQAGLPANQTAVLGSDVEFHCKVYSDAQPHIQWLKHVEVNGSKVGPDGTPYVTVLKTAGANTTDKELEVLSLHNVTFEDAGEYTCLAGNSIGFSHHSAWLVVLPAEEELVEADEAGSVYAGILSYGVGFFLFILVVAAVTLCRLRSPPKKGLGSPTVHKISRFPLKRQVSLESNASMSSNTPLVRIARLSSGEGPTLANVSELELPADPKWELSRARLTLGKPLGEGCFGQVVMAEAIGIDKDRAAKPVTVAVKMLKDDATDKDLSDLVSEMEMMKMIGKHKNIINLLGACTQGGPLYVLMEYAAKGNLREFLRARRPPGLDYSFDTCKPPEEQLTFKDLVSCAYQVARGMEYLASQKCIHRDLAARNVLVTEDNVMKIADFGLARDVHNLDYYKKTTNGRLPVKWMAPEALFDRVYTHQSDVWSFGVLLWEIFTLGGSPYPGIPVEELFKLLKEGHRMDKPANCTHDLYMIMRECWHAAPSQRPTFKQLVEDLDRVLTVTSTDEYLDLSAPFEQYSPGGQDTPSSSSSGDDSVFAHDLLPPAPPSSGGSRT
Sequence of FGFR3 (P22607 23-806): as the sequence (P22607 23-806 V555M) above, with M533V counted along it
Sequence of FGFR1 (P11362 22-822): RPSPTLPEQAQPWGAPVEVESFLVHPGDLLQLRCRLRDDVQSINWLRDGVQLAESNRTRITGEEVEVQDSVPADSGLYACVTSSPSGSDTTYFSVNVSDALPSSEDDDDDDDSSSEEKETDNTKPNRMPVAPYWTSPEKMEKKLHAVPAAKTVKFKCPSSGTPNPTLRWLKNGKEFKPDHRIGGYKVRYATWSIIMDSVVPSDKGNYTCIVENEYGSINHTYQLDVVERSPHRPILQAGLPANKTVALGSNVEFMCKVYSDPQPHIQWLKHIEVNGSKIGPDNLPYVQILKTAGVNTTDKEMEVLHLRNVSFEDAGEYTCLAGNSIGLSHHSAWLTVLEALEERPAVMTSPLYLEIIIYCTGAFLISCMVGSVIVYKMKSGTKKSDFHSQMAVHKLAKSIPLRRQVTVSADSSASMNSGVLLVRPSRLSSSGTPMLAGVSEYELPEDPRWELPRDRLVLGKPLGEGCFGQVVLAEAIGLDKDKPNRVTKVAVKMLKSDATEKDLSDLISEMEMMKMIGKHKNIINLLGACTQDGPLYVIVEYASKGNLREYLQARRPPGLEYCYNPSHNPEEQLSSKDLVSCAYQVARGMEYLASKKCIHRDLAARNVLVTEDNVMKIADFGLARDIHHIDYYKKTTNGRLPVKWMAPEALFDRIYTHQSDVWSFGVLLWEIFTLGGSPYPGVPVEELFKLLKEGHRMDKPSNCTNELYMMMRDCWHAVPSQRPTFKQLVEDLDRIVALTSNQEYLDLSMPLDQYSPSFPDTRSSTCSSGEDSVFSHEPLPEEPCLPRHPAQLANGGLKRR

SMILES	Kd (FGFR1)	Kd (FGFR2)	Kd (FGFR3)	Kd (FGFR3 (V555M))	Kd (FGFR4)
C[C@@H](Oc1ccc2[nH]nc(-c3cnc(Cl)nc3)c2c1)c1c(Cl)cncc1Cl [Example 59, 3-(2-Chloropyrimidin-5-yl)-5-[(1R)-1-(3,5-dichloro-4-pyridyl)ethoxy]-1H-indazole]	20 to 100 nM	100 to 300 nM	20 to 100 nM	20 to 100 nM	20 to 100 nM
C[C@@H](Oc1ccc2[nH]nc(-c3ccc(C4CCNCC4)nc3)c2c1)c1c(Cl)cncc1Cl [Example 69, 5-[(1R)-1-(3,5-dichloro-4-pyridyl)ethoxy]-3-[6-(4-piperidyl)-3-pyridyl]-1H-indazole]	1 to 20 nM	1 to 20 nM	1 to 20 nM	1 to 20 nM	1 to 20 nM
C[C@@H](Oc1ccc2[nH]nc(-c3ccc(N4CC5(CCN(S(C)(=O)=O)CC5)OC4=O)nc3)c2c1)c1c(Cl)cncc1Cl [Example 76, 3-[5-[5-[(1R)-1-(3,5-dichloro-4-pyridyl)ethoxy]-1H-indazol-3-yl]-2-pyridyl]-8-methylsulfonyl-1-oxa-3,8-diazaspiro[4.5]decan-2-one]	20 to 100 nM	20 to 100 nM	1 to 20 nM	1 to 20 nM	1 to 20 nM
CCN1C2CC1CN(c1ccc(-c3n[nH]c4cc(OC)c(O[C@H](C)c5c(C)cnnc5C)cc34)cn1)C2 [Example 213, 3-(5-(5-((R)-1-(3,5-dimethylpyridazin-4-yl)ethoxy)-6-methoxy-1H-indazol-3-yl)pyridin-2-yl)-6-ethyl-3,6-diazabicyclo[3.1.1]heptane]	1 to 20 nM	–	1 to 20 nM	1 to 20 nM	1 to 20 nM
C[C@@H](Oc1ccc2[nH]nc(-c3ccc(N4CC5(CCOC5)C4)nc3)c2c1)c1c(Cl)cnnc1Cl [Example 223, (R)-2-(5-(5-(1-(3,5-dichloropyridazin-4-yl)ethoxy)-1H-indazol-3-yl)pyridin-2-yl)-6-oxa-2-azaspiro[3.4]octane]	–	100 to 300 nM	20 to 100 nM	20 to 100 nM	–

Further lines, results first:

Kd (FGFR1)	Kd (FGFR2)	Kd (FGFR3)	Kd (FGFR3 (V555M))	Kd (FGFR4)	SMILES
1 to 20 nM	1 to 20 nM	1 to 20 nM	1 to 20 nM	1 to 20 nM	C[C@@H](Oc1ccc2[nH]nc(-c3ccc(N4CC5(CNC5)C4)nc3)c2c1)c1c(Cl)cncc1Cl [Example 45, 3-[6-(2,6-diazaspiro[3.3]heptan-2-yl)-3-pyridyl]-5-[(1R)-1-(3,5-dichloro-4-pyridyl)ethoxy]-1H-indazole]
1 to 20 nM	20 to 100 nM	1 to 20 nM	1 to 20 nM	1 to 20 nM	C[C@@H](Oc1ccc2[nH]nc(-c3cnc(N4CCCNCC4)nc3)c2c1)c1c(Cl)cncc1Cl [Example 61, 3-[2-(1,4-Diazepan-1-yl)pyrimidin-5-yl]-5-[(1R)-1-(3,5-dichloro-4-pyridyl)ethoxy]-1H-indazole]
1 to 20 nM	1 to 20 nM	1 to 20 nM	1 to 20 nM	1 to 20 nM	C[C@@H](Oc1ccc2[nH]nc(-c3cnn(C4CCN(S(C)(=O)=O)CC4)c3)c2c1)c1c(Cl)cncc1Cl [Example 66, 5-[(1R)-1-(3,5-dichloro-4-pyridyl)ethoxy]-3-[1-(1-methylsulfonyl-4-piperidyl)pyrazol-4-yl]-1H-indazole]
1 to 20 nM	1 to 20 nM	1 to 20 nM	1 to 20 nM	1 to 20 nM	C[C@@H](Oc1ccc2[nH]nc(-c3cnn(C4CCN(C(=O)CN(C)C)CC4)c3)c2c1)c1c(Cl)cncc1Cl [Example 81, 1-[4-[4-[5-[(1R)-1-(3,5-dichloro-4-pyridyl)ethoxy]-1H-indazol-3-yl]pyrazol-1-yl]-1-piperidyl]-2-(dimethylamino)ethanone]
100 to 300 nM	–	20 to 100 nM	20 to 100 nM	1 to 20 nM	Cc1cnnc(C)c1[C@@H](C)Oc1ccc2[nH]nc(-c3cnc(N4CCCC4)c(C#N)c3)c2c1 [Example 173, 5-[5-[(1R)-1-(3,5-dimethylpyridazin-4-yl)ethoxy]-1H-indazol-3-yl]-2-pyrrolidin-1-yl-pyridine-3-carbonitrile]
